We go through 5 substances from US7094752B2 (Chiron Corporation, priority 1997, dated 2006).

Entries after “also recorded” stand apart in the source; their conditions may differ. Like-named read-outs stand apart in the source and are kept apart here. Ends that are not written are not given here.

For assay [1], the target named is T1, uPA1–48:uPAR complexes binding to vitronectin (Homo sapiens, UniProt Q03405).
T1 construct: sUPAR, soluble truncated form of the urokinase receptor; made in house; host or cells: suPAR: baculovirus-infected Sf9 cells; uPA1-48: recombinant yeast; vitronectin: purified from human plasma
Description: Vitronectin binding assay (ELISA). The conditions noted are these: 20 nM biotinylated suPAR, 20 nM uPA1–48. As for the experimental part:
Vitronectin was purified from human plasma by the method of Yatohgo et al, Cello Struct.and Funct. 13: 281–292 (1988). Purified vitronectin was diluted to 20 μg/ml in PBS containing 1 mM CaCl2 and 0.5 mM MgCl2, dispensed at 50 μl/well into Immulon II wells (Dynatech, Chantilly, Va.), incubated overnight at 4° C. and washed with PBS/BSA. Biotinylated sUPAR was diluted to 20 nM in PBS/BSA, incubated with or without test ligand for 30 minutes at room temperature (22° C.), dispensed at 100 μl/well and incubated for 90 minutes. Wells were then washed and horseradish peroxidase (HRP)-conjugated streptavidin was added at 0.4 μg/ml in PBS/2% BSA for 1 hour followed by washing and addition of 100 μl/well TMB substrate. The color development was stopped with 100 μl of 0.8N H2SO4 and the absorbance at 450 nm measured in a 96 well plate reader (Dynatech, Chantilly, Va.). Antagonistic effects of test ligands were measured as described above except the ligands were incubated with 20 nM biotinylated suPAR in the presence of 20 nM uPA1–48.
In order to analyze the effects of the various peptide ligands on the uPAR:vitronectin interaction, we developed an in vitro ELISA based assay for this interaction, in which biotinylated suPAR and uPA1–48 bind to immobilized, urea purified vitronectin, and the bound sUPAR is detected with HRP conjugated streptavidin. Under the conditions of the assay binding of biotinylated uPAR to vitronectin is strictly dependent on uPA1–48, as shown in FIG. 1.
In general terms: ELISA stands for enzyme-linked immunosorbent assay.

Assay [2] deals with T2, uPA1–48:suPAR complex (Homo sapiens, UniProt Q03405).
T2 construct: sUPAR, soluble truncated form of the urokinase receptor; made in house; host or cells: suPAR: baculovirus-infected Sf9 cells; uPA1-48: recombinant yeast
Put plainly: Bacteriophage 7 and 18 binding to uPA1–48:suPAR complex in presence of vitronectin. Conditions: clone 7 and 18 bacteriophage. How it is done: The ability of the various bacteriophage derived peptides to affect binding of uPA1–48:uPAR complexes to vitronectin was assessed in the ELISA assay. Two classes of peptides were effective antagonists in this assay. […] None of the peptides when tested alone increased the binding of biotinylated suPAR to vitronectin. […] In order to test whether the clone 7 and 18 peptides bound directly at the vitronectin binding site on uPAR, and inhibited vitronectin binding by uPAR:uPA1–48 by direct competition for that site, the inventors examined the effects of vitronectin on the binding of these bacteriophage. Vitronectin reduced bacteriophage binding to the uPA1–48:suPAR complex by 5–10 fold, consistent with the hypothesis that these peptides mimic vitronectin as a uPAR ligand.

Assay [3] has as its system nontransfected 293 cells. Put plainly: Adhesion of nontransfected 293 cells to fibronectin or collagen. Conditions: recombinant soluble uPAR added, dose dependent. The class given is cell-based. The text has this:
To explore whether uPAR binds to integrins, nontransfected 293 cells were allowed to adhere to fibronectin or collagen in the presence of recombinant soluble uPAR (suPAR).

For assay [4], the system named is uPAR mediated adhesion of stimulated U937 cells. Description: Adhesion of stimulated U937 cells to vitronectin. Format: cell-based. From the text:
Previous results had shown that vitronectin binding by uPAR correlated with cell adhesion of stimulated U937 cells as described in Wei et al, J. Biol. Chem. 269: 32380–32388 (1994). It was found also that clone 7 peptide could block uPAR mediated adhesion of these cells, whereas the scrambled version of the same peptide had no effect.

The target in assay [5] is T3, suPAR (Homo sapiens, UniProt Q03405).
T3 construct: sUPAR, soluble truncated form of the urokinase receptor; made in house; host or cells: baculovirus-infected Sf9 insect cells
Put plainly: suPAR binding assay (competition for uPA1–48 binding). Conditions: synthetic peptide. How it is done:
Twenty-eight independent bacteriophage were isolated and the random peptide encoding DNA segments sequenced. […] This is in contrast to previous results of affinity selection on uPAR alone, where the majority of selected bacteriophage bound with substantial yield as described in Goodson et al, Proc.Natl.Acad.Sci. USA 91: 7129–7133 (1994). The yields of these four bacteriophage were determined on suPAR in the presence and absence of uPA1–48. In addition, the encoded peptides were synthesized and tested as competitors in a suPAR binding assay as described in Stratton-Thomas et al, Prot.Eng. 8: 463–470 (1995), and Kaufman et al Anal.Biochem. 211: 261–266 (1993).

Assay [6] has as its target T3, suPAR. Put plainly: SuPAR:1-anilino-8-napthalenesulfonate (ANS) fluorescence. The class given is binding. The conditions noted are these: 2 μM sUPAR, 10 μM ANS, 0 to 20 μM competitor. How it is done: Determination of the effect of various peptide ligands on sUPAR/ANS fluorescence was performed following a procedure similar to that of Ploug et al, Biochem. 33: 8991–8997 (1994). Fluorescence emission spectra of sUPAR/ANS solutions with or without competitors were obtained using an Hitachi F-4500 fluorescence spectrophotometer with an excitation wavelength of 386 nm, 5-nm band-pass excitation and emission slits, and a 10 mm path length quartz cuvette. The emission spectra from 400 to 600 nm were recorded. For competition measurements, dilutions of a stock sUPAR/ANS solution were made to give individual 0.5 ml aliquots with a final concentration of 2 μM sUPAR, 10 μM ANS, and 0 to 20 μM competitor in PBS containing 10% DMSO. Fluorescence measurements were made after a one hour incubation at 25° C.

The target of assay [7] is T4, sUPAR domain 2–3 (D23) (Homo sapiens, UniProt Q03405).
T4 construct: domains 2 and 3 (amino acids 93–313); made in house; host or cells: baculovirus infected Sf9 insect cells
Put plainly: Bacteriophage binding to sUPAR domain 2/3. Conditions: phage-displayed peptide. As for the experimental part: FIG. 5. Bacteriophage binding to sUPAR domain 2/3. Phage were added to wells containing sUPAR domain 2/3 immobilized by its epitope tag via protein G and monoclonal antibody to the epitope tag. Wells containing protein G and antibody but no domain 2/3 were included to determine nonspecific phage binding. Urea-eluted phage and the input stocks were titered by plaque formation assay. Results were single point determinations calculated as a percent of the input titer and were repeated in three separate experiments.
It was also shown by the inventors that bacteriophage bound to sUPAR domain 2–3fragment. Protein G, 100μl, 1 mg/ml in 50 mM Na2CO3, pH9.6, was added to MaxiSorp wells, incubated overnight at 4° C. and then washed with PBS/BSA. Fifty μl of monoclonal antibody to the epitope tag EYMPME (SEQ ID NO: 18) was added at 1 mg/ml in PBS/BSA and incubated for 2 hours at room temperature. The wells were washed, recombinant sUPAR domain 2–3 (1.7 μM in PBS/BSA) was added and incubated for 1.5 hours at room temperature. The wells were washed prior to the addition of bacteriophage (approximately 10^8 pfu), and then treated as described in the previous section for binding to suPAR.

Assay [8] addresses T5, uPAR (Homo sapiens, UniProt Q03405).
T5 construct: sUPAR, soluble truncated form of the urokinase receptor; made in house; host or cells: baculovirus-infected Sf9 insect cells
Put plainly: IC 50 (uM)^2. How it is done:
Table printed on a drawing sheet, FIG. 6
Head of the field: IC 50 (uM)^2
The patent's description of the figure: FIG 6: Table. The table of FIG 6 depicts the sequences (SEQ ID NOS:12–17), phage yields, and IC50s in uPAR binding assays for selected phage peptides. Legend: 1. Individual phage were incubated with biotinylated suPAR with and without 10 μM uPA1–48 on streptavidin coated wells as described herein. The background yields of all phage without SuPAR in the wells ranged from 0.002–0.025%. Errors in yield are in the range 50%. 2. Apparent inhibition constant of the synthetic peptide in the uPAR receptor binding assay; errors are in the range of 20%. 3. NT=not determined because of peptide insolubility. 4. Clone 20 and 13–32 peptides were as described previously.
First copying reader's note: The head is printed shifted: 'Phage Yield' covers the -1-48 and +1-48 columns and 'IC 50 (uM)' belongs to the last column; the raised marks 1-4 refer to a legend that is not printed on the sheet.
Where the first naming reader finds the target: description_of_the_figure: IC50s in uPAR binding assays for selected phage peptides

T4 sequence (Q03405 115-335): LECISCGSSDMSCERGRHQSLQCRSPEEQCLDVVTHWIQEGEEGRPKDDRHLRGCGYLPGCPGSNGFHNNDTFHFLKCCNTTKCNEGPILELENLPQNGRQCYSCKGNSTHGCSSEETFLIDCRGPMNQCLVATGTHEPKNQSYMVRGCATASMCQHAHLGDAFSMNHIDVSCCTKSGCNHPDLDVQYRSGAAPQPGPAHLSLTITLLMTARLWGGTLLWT
T3 sequence (Q03405 23-305 limits assumed): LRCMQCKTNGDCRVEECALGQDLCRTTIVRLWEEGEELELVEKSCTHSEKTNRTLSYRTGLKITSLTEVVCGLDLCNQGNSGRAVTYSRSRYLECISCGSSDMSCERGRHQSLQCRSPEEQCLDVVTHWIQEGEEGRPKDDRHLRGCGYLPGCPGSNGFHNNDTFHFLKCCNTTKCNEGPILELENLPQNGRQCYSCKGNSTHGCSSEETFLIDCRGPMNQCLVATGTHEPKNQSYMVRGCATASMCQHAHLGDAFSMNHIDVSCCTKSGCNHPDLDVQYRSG
T1 sequence (Q03405 23-305 limits assumed, one chain of several): as the sequence (Q03405 23-305 limits assumed) above
T5 sequence (Q03405 whole entry, looked up, the tested form may be a part): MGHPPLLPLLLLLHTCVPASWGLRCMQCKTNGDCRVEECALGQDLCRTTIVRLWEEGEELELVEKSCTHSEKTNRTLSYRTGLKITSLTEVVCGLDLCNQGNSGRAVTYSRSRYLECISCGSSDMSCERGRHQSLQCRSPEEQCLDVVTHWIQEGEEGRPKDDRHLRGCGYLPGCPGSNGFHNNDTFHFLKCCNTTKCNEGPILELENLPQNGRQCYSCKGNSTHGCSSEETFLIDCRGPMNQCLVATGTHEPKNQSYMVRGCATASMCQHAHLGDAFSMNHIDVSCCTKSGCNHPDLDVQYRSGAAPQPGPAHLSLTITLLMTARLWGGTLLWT
T2 sequence (Q03405 23-305, other chains not shown): as the sequence (Q03405 23-305 limits assumed) above

On to “vitronectin: vitronectin purified from human plasma”, for which, in assay [1], the “effect on binding of uPA1–48:uPAR complexes to vitronectin” value (“effect on binding” below) was “blocked”. Also, in assay [2], the “reduction of bacteriophage binding to the uPA1–48:suPAR complex” value was 5–10 fold.
Regarding “suPAR: soluble recombinant human urokinase receptor from baculovirus-infected Sf9 insect cells”, the “adhesion of nontransfected 293 cells to fibronectin and collagen” value in assay [3] is reported as “inhibited adhesion”.
For “VEYRDAYSYPQYLSYLE [scrambled version of clone 7, same amino acids as clone 7, but in a different order, reference compound]”, the “effect on binding” value in assay [1] is “did not; also recorded: does not”. In addition, in assay [4], the “block of uPAR mediated adhesion of stimulated U937 cells to vitronectin” value is “no effect”.
Take AEPVYQYELDSYLRSYY-NH2 [peptide 7]: the “effect on binding” value was “inhibits complex binding to vitronectin” in assay [1] and “inhibit complex binding” in assay [1] (listed as clone 7). Besides, the “block of uPAR mediated adhesion of stimulated U937 cells to vitronectin” value in assay [4] (listed as clone 7) is recorded as “effective blocker”; in assay [4] (listed as clone 7 peptide), “could block”. Besides, the “competition for uPA1–48 binding to sUPAR / receptor binding activity (in words)” value in assay [5] was “greatly reduced competition for uPA1–48 binding”. For the same substance, the “effect on ANS fluorescence enhancement in the presence of uPAR” value in assay [6] is given as “reduced fluorescence in a dose dependent manner”. Further, the “bacteriophage binding to immobilized D23 versus sUPAR” value in assay [7] is recorded as “intermediate degree of binding to D23”. For the same substance, the “reduced binding to D23 versus suPAR” value in assay [7] is “about 50 fold”. For the same substance, it took 10 µM to reach half-maximal inhibition in assay [8] (IC50).
With AELDLSTFYDIQYLLRT-NH2 [peptide 18], the “effect on binding” value was “blocks binding of complexes to vitronectin” in assay [1] and “inhibit complex binding” in assay [1] (listed as clone 18). Besides, the “competition for uPA1–48 binding to sUPAR / receptor binding activity (in words)” value in assay [5] was “greatly reduced competition for uPA1–48 binding”. Also, the “bacteriophage binding to immobilized D23 versus sUPAR” value in assay [7] is on record as “intermediate degree of binding to D23”. Further, in assay [8], the half-maximal inhibitory concentration (IC50) (usually the concentration at which inhibition is half-maximal) stood at 10 µM.
